The nature of data set [1]: Human plasma stability assay (Test 2). As to conditions: heparinated human plasma, 0.5 uM test compound, 37° C., up to 120 minutes; read-out: Test 2 T½. In kind it is in vitro ADME. As to the method: (Test 2) Human plasma stability assay was conducted by incubating 0.5 uM test compounds at 37° C. for up to 120 minutes in heparinated human plasma. At 0, 5, 15, 30, 60 and 120 […] min., an aliquot was taken, quenched with internal standard containing stop solution. After incubation, the samples were analyzed by LC-MS/MS. Peak area ratios of analyte to internal standard were used to calculate the half-life. Formation of the active drug Compound A over the time course was also monitored by LC-MS/MS analysis.

Data set [2] can be described thus: Human hepatocyte stability assay (Test 4). In kind it is in vitro ADME. Particulars: cryopreserved human hepatocytes; human hepatocytes 0.5 million cells/mL, 0.5 uM test compound, 37° C., up to 240 minutes; read-out: Test 4 T½. As to the method:
(Test 4) Human hepatocyte stability assay was conducted by incubating 0.5 uM test compound at 37° C. for up to 240 minutes. Cryopreserved human hepatocytes were obtained from Celsis IVT ( Baltimore, Maryland). Cells were thawed according to vendor’s instructions and were suspended in William’s Medium E to 0.5 million cells/mL. Test compounds were spiked into the cell suspension to initiate the reactions. At 0, 10, 30, 60, 120 and 240 min., an aliquot was taken, quenched with internal standard containing stop solution. After incubation, the samples were analyzed by LC-MS/MS. Peak area ratios of analyte to internal standard were used to calculate the intrinsic clearance. The intrinsic clearance (CLint) was determined from the first order elimination constant by non-linear regression. Formation of the active drug Compound A over the time course was also monitored by LC-MS/MS analysis.

Data set [3] is described as follows: Human liver microsomal stability assay (Test 1). Format: in vitro ADME. Particulars: human liver microsomes, 0.5 uM test compound, 37° C., up to 45 minutes, pH 7.4, NADPH generating system; read-out: Test 1 T½. The procedure:
(§1) (Test 1) Human liver microsomal stability assay was conducted by incubating 0.5 uM test compounds at 37° C. for up to 45 minutes in 50 mM of potassium phosphate buffer (pH 7.4) containing 0.5 mg of microsomal protein and 50 µL of NADPH generating system (7.8 mg of glucose 6-phosphate, 1.7 mg of NADPH and 6 U of glucose 6-phosphate dehydrogenase per mL in 2% w/v of sodium bicarbonate). At 0, 5, 15, 30 and 45 min., an aliquot was taken, quenched with internal standard containing stop solution. No co-factor controls at 45 minutes were also prepared. After incubation, the samples were analyzed by LC-MS/MS. Peak area ratios of analyte to internal standard were used to calculate the intrinsic clearance. The intrinsic clearance (CLint) was determined from the first order elimination constant by non-linear regression. Formation of the active drug Compound A over the time course was also monitored by LC-MS/MS analysis.
For orientation: Liver microsomes are a subcellular fraction often used to study metabolism.

The conditions of data set [4]: treprostinil as the free acid, cited from earlier work.
A short description of data set [5]: Human skin homogenate stability assay (Test 3). In kind it is in vitro ADME. Particulars: 0.5 uM test compound, 37° C., up to 45 minutes, pH 7.4, NADPH generating system, read-out: Test 3 T½. The procedure:
as §1, with “3)” for “1)”, “skin homogenate” for “liver microsomal”, “conducted in a similar way as the human liver microsomal stability assay,” for “conducted”, “human skin homogenate” for “microsomal”

For `CCCCC[C@H](O)CC[C@@H]1[C@H]2Cc3cccc(OCC(=O)NCC4CC4)c3C[C@H]2C[C@H]1O` [Compound 2, N-Cyclopropylmethyl-2-[2-hydroxy-1-(3-hydroxy-octyl)-2,3,3a,4,9,9a-hexahydro-1H-cyclopenta[b]naphthalen-5-yloxy]-acetamide], the half-life at 0.5 uM in data set [1] was above 60 min; in data set [2] it was 31 to 60 min; in data set [3] it was below 15 min.

Consider `CCCCC[C@H](O)CC[C@@H]1[C@H]2Cc3cccc(OCC(=O)O)c3C[C@H]2C[C@H]1O` [treprostinil], for which the absolute oral bioavailability result in data set [4] (oral) is listed as “less than 10%”. In addition, the systemic half life result in data set [4] (due to significant metabolism) is listed as “very short”.

Regarding `CCCCC[C@H](O)CC[C@@H]1[C@H]2Cc3cccc(OCC(=O)OC)c3C[C@H]2C[C@H]1OC(=O)CCCC` [Compound 22, Pentanoic acid 1-(3-hydroxy-octyl)-5-methoxycarbonylmethoxy-2,3,3a,4,9,9a-hexahydro-1H-cyclopenta[b]naphthalen-2-yl ester], the results for the half-life at 0.5 uM in data set [5], in data set [1] and in data set [3] were above 60 min, above 60 min and below 15 min, respectively.

Take `CCCCC[C@H](O)CC[C@@H]1[C@H]2Cc3cccc(OCC(=O)NCC(F)(F)F)c3C[C@H]2C[C@H]1O` [Compound 14, 2-[2-Hydroxy-1-(3-hydroxy-octyl)-2,3,3a,4,9,9a-hexahydro-1H-cyclopenta[b]naphthalen-5-yloxy]-N-(2,2,2-trifluoro-ethyl)-acetamide]: the half-life at 0.5 uM in data set [5] is above 60 min; in data set [1], above 60 min; in data set [2], below 15 min; in data set [3] it was below 15 min.

On to `CCCCC[C@H](O)CC[C@@H]1[C@H]2Cc3cccc(OCC(=O)OC)c3C[C@H]2C[C@H]1O` [Compound 15, [2-Hydroxy-1-(3-hydroxy-octyl)-2,3,3a,4,9,9a-hexahydro-1H-cyclopenta[b]naphthalen-5-yloxy]-acetic acid methyl ester], for which the half-life at 0.5 uM in data set [5], in data set [1] and in data set [3] was below 15 min each time.

As to `CCCCC[C@H](O)CC[C@@H]1[C@H]2Cc3cccc(OCC(=O)O[C@@H](C)CC)c3C[C@H]2C[C@H]1O` [Compound 61], the half-life at 0.5 uM is 31 to 60 min in data set [5], 15 to 30 min in data set [1] and below 15 min in data set [3].

For `CCCCC[C@H](O)CC[C@@H]1[C@H]2Cc3cccc(OCC(=O)OC)c3C[C@H]2C[C@H]1OC(=O)OCC` [Compound 25, [2-Ethoxycarbonyloxy-1-(3-hydroxy-octyl)-2,3,3a,4,9,9a-hexahydro-1H-cyclopenta[b]naphthalen-5-yloxy]-acetic acid methyl ester], the half-life at 0.5 uM in data set [5] was 31 to 60 min; in data set [1] it was above 60 min; in data set [3], below 15 min.

As to `CCCCC[C@H](O)CC[C@@H]1[C@H]2Cc3cccc(OCC(=O)NCCO)c3C[C@H]2C[C@H]1O` [Compound 7, N-(2-Hydroxy-ethyl)-2-[2-hydroxy-1-(3-hydroxy-octyl)-2,3,3a,4,9,9a-hexahydro-1H-cyclopenta[b]naphthalen-5-yloxy]-acetamide], the half-life at 0.5 uM is above 60 min in data set [1], 15 to 30 min in data set [2] and 15 to 30 min in data set [3].

With `CCCCC[C@H](O)CC[C@@H]1[C@H]2Cc3cccc(OCC(=O)N(C)CC(=O)OC)c3C[C@H]2C[C@H]1O` [Compound 13, ({2-[2-Hydroxy-1-(3-hydroxy-octyl)-2,3,3a,4,9,9a-hexahydro-1H-cyclopenta[b]naphthalen-5-yloxy]-acetyl}-methyl-amino)-acetic acid methyl ester], the half-life at 0.5 uM in data set [1] was above 60 min; in data set [2], below 15 min; in data set [3], below 15 min.

For the molecule `CCCCCCCCOC(=O)COc1cccc2c1C[C@H]1C[C@@H](O)[C@H](CC[C@@H](O)CCCCC)[C@H]1C2` [Compound 64], the half-life at 0.5 uM in data set [5] was above 60 min; in data set [1], above 60 min; in data set [3], below 15 min.

For the molecule `CCCCC[C@H](O)CC[C@@H]1[C@H]2Cc3cccc(OCC(=O)O[C@H](C)CC)c3C[C@H]2C[C@H]1O` [Compound 60], the results for the half-life at 0.5 uM in data set [5], in data set [1] and in data set [3] were 31 to 60 min, 31 to 60 min and below 15 min, respectively.

`CCCCC[C@H](O)CC[C@@H]1[C@H]2Cc3cccc(OCC(=O)OCC(C)(C)C)c3C[C@H]2C[C@H]1O` [Compound 16, [2-Hydroxy-1-(3-hydroxy-octyl)-2,3,3a,4,9,9a-hexahydro-1H-cyclopenta[b]naphthalen-5-yloxy]-acetic acid 2,2-dimethyl-propyl ester]: the half-life at 0.5 uM in data set [5] was 15 to 30 min; in data set [1], 15 to 30 min; in data set [3], below 15 min.

For `CCCCC[C@H](O)CC[C@@H]1[C@H]2Cc3cccc(OCC(=O)OC(C)C)c3C[C@H]2C[C@H]1O` [Compound 20, [2-Hydroxy-1-(3-hydroxy-octyl)-2,3,3a,4,9,9a-hexahydro-1H-cyclopenta[b]naphthalen-5-yloxy]-acetic acid isopropyl ester], the half-life at 0.5 uM in data set [5] is below 15 min; in data set [1] it was 31 to 60 min; in data set [3], below 15 min.

Source of the values: patent US20230331691A1, “TREPROSTINIL DERIVATIVE COMPOUNDS AND METHODS OF USING SAME” (CORSAIR PHARMA, INC., priority 2013, published 2023).
